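Values below derive from 48-hour exposures of cells grown in 96-well plates, with endpoints linearly interpolated between the two concentrations bracketing the appropriate inhibition level. Abbreviation: GI50, concentration required for 50% inhibition of growth.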 Active and inactive are the calls of the source. Cut-off read from the data, not from the text of the source: active = GI50 up to about 1.1 µM and inactive = higher. Residues, ends and D or L forms follow the SMILES beside them. *: point of attachment. Boc = CC(C)(C)OC(=O)*; OBn = c1ccc(CO*)cc1
What was measured:
Test in all cases: growth of human tumour cells (NCI), 48 h
[1] = system: A498
[2] = system: BT-549
[3] = system: COLO 205
[4] = system: EKVX
[5] = system: HCC 2998
[6] = system: HL-60
[7] = system: HOP-62
[8] = system: HT-29
[9] = system: K562
[10] = system: MCF7
[11] = system: MDA-MB-231
[12] = system: NCI/ADR-RES
[13] = system: OVCAR-5
[14] = system: SF-539
[15] = system: SK-MEL-28
[16] = system: SK-MEL-2
[17] = system: SN12C
[18] = system: SR
[19] = system: SW-620
[20] = system: UACC-62

Compound | GI50 [1] | GI50 [2] | GI50 [3] | GI50 [4] | GI50 [5] | GI50 [6] | GI50 [7] | GI50 [8] | GI50 [9] | GI50 [10] | GI50 [11] | GI50 [12] | GI50 [13] | GI50 [14] | GI50 [15] | GI50 [16] | GI50 [17] | GI50 [18] | GI50 [19] | GI50 [20]
CC1=C2CC(C)(C)/C=C\C(=O)/C(C)=C\C3=C[C@H](C)C[C@]3(O2)C1=O | 4.67 µM (inactive) | 0.518 µM (active) | 0.902 µM (active) | 1.87 µM (inactive) | 4.85 µM (inactive) | 0.139 µM (active) | 6.43 µM (inactive) | 0.927 µM (active) | 1.51 µM (inactive) | 0.343 µM (active) | 1.05 µM (active) | 0.537 µM (active) | 1.32 µM (inactive) | 0.946 µM (active) | 0.798 µM (active) | 2.4 µM (inactive) | 1.42 µM (inactive) | 0.243 µM (active) | 0.41 µM (active) | 1.05 µM (active)
CCOc1cc2c(cc1O)C(N)C[C@@H]1[C@@H]2CC[C@]2(C)[C@@H](O)CC[C@@H]12 (stereo partly drawn) | 34.8 µM (inactive) | 40.9 µM (inactive) | 52.7 µM (inactive) | 80.9 µM (inactive) | 36.7 µM (inactive) | 18.6 µM (inactive) | 46.7 µM (inactive) | 42.7 µM (inactive) | 18.8 µM (inactive) | 40.8 µM (inactive) | 83.9 µM (inactive) | > 100 µM (inactive) | > 100 µM (inactive) | > 10 µM (inactive) | 42.8 µM (inactive) | 41.1 µM (inactive) | – | 15.2 µM (inactive) | 34 µM (inactive) | –
O=C(Cn1c(C(=O)/C=C/c2cccs2)nc2ccccc21)c1ccc(Cl)cc1 | 19.9 µM (inactive) | 21 µM (inactive) | 17.5 µM (inactive) | – | 14.8 µM (inactive) | 18.3 µM (inactive) | 25.9 µM (inactive) | 19.7 µM (inactive) | 7.8 µM (inactive) | 16.3 µM (inactive) | 16.8 µM (inactive) | 14 µM (inactive) | > 100 µM (inactive) | 32.2 µM (inactive) | 30.5 µM (inactive) | 6 µM (inactive) | 16.7 µM (inactive) | 3.09 µM (inactive) | 25.6 µM (inactive) | 25.2 µM (inactive)
O=C(NO)c1ccc(OCc2cccc(Cl)c2)cc1 | 4.81 µM (inactive) | 13.7 µM (inactive) | 7.35 µM (inactive) | 10.8 µM (inactive) | 5.87 µM (inactive) | 2.47 µM (inactive) | 9.1 µM (inactive) | 8.45 µM (inactive) | 7.96 µM (inactive) | 12.7 µM (inactive) | 12.1 µM (inactive) | 2.13 µM (inactive) | 6.15 µM (inactive) | 8.11 µM (inactive) | 12.3 µM (inactive) | 12.8 µM (inactive) | 8.89 µM (inactive) | 2.16 µM (inactive) | 5.08 µM (inactive) | 5.4 µM (inactive)
CC(=O)Nc1cccc(N2C(=O)/C(=C\c3cccc(Oc4ccccc4)c3)S(=O)(=O)C2c2ccccc2)c1 (stereo not drawn) | > 100 µM (inactive) | 69.8 µM (inactive) | 59.7 µM (inactive) | 73.6 µM (inactive) | > 100 µM (inactive) | 18.9 µM (inactive) | > 100 µM (inactive) | 64.9 µM (inactive) | 26.7 µM (inactive) | 34 µM (inactive) | > 100 µM (inactive) | 55.5 µM (inactive) | > 100 µM (inactive) | 36 µM (inactive) | > 100 µM (inactive) | 55.6 µM (inactive) | > 100 µM (inactive) | 15.9 µM (inactive) | 37.8 µM (inactive) | 43.6 µM (inactive)
COC(=O)c1cc(/C=C2\Cc3cc4c(cc3C2=O)CCC4)cc2c1CCC2 | > 100 µM (inactive) | > 100 µM (inactive) | > 100 µM (inactive) | > 100 µM (inactive) | > 100 µM (inactive) | > 100 µM (inactive) | > 100 µM (inactive) | > 100 µM (inactive) | > 100 µM (inactive) | > 100 µM (inactive) | > 100 µM (inactive) | > 100 µM (inactive) | > 100 µM (inactive) | > 100 µM (inactive) | > 100 µM (inactive) | > 100 µM (inactive) | > 100 µM (inactive) | > 100 µM (inactive) | > 100 µM (inactive) | > 100 µM (inactive)
O=C(O)CCc1ccc(-c2ccccc2)[nH]1 | > 100 µM (inactive) | > 100 µM (inactive) | > 100 µM (inactive) | > 100 µM (inactive) | > 100 µM (inactive) | > 100 µM (inactive) | > 100 µM (inactive) | > 100 µM (inactive) | > 100 µM (inactive) | > 100 µM (inactive) | > 100 µM (inactive) | > 100 µM (inactive) | > 100 µM (inactive) | > 100 µM (inactive) | > 100 µM (inactive) | > 100 µM (inactive) | > 100 µM (inactive) | > 100 µM (inactive) | > 100 µM (inactive) | > 100 µM (inactive)
COc1c(C)c(OC)c(C(=O)CC(C)C)c(OC)c1C | > 100 µM (inactive) | > 100 µM (inactive) | > 100 µM (inactive) | > 100 µM (inactive) | > 100 µM (inactive) | 7.01 µM (inactive) | > 100 µM (inactive) | 63.4 µM (inactive) | – | > 100 µM (inactive) | > 100 µM (inactive) | 52.6 µM (inactive) | > 100 µM (inactive) | > 100 µM (inactive) | > 100 µM (inactive) | > 100 µM (inactive) | > 100 µM (inactive) | 21.4 µM (inactive) | > 100 µM (inactive) | > 100 µM (inactive)
CCc1c[n+]2c(cc1C1=CN3c4ccccc4[C@]45CCN6C/C(=C/CO)[C@H](C[C@H]64)[C@@H]([C@@H]1O)[C@H]35)-c1[nH]c3ccccc3c1CC2 | > 50 µM (inactive) | > 50 µM (inactive) | > 50 µM (inactive) | > 50 µM (inactive) | > 50 µM (inactive) | > 50 µM (inactive) | > 50 µM (inactive) | > 50 µM (inactive) | > 50 µM (inactive) | > 50 µM (inactive) | > 50 µM (inactive) | > 50 µM (inactive) | > 50 µM (inactive) | > 50 µM (inactive) | > 50 µM (inactive) | > 50 µM (inactive) | > 50 µM (inactive) | > 50 µM (inactive) | > 50 µM (inactive) | > 50 µM (inactive)
CCOC(=O)c1sc2nc(SC)nc(Nc3ccc4c(c3)OCCCO4)c2c1N | 26.7 µM (inactive) | 17.5 µM (inactive) | 41.5 µM (inactive) | 10.6 µM (inactive) | 25.2 µM (inactive) | > 100 µM (inactive) | 20.1 µM (inactive) | 32.8 µM (inactive) | 9.04 µM (inactive) | 7.71 µM (inactive) | 33 µM (inactive) | 8.93 µM (inactive) | > 100 µM (inactive) | 14.3 µM (inactive) | > 100 µM (inactive) | 62.5 µM (inactive) | > 100 µM (inactive) | 16.7 µM (inactive) | 17.5 µM (inactive) | 9.84 µM (inactive)
O=c1n(CC2CO2)c(=O)n(CC2CO2)c(=O)n1CC1CO1 (stereo not drawn) [TEROXIRONE] | 30.3 µM (inactive) | 11.5 µM (inactive) | 14.3 µM (inactive) | 96.2 µM (inactive) | 43.7 µM (inactive) | 1.55 µM (inactive) | 20.3 µM (inactive) | 13.9 µM (inactive) | 22.8 µM (inactive) | 11.1 µM (inactive) | 26.4 µM (inactive) | 34 µM (inactive) | 67.8 µM (inactive) | 7.76 µM (inactive) | 54.5 µM (inactive) | 90.2 µM (inactive) | 7.83 µM (inactive) | 1.25 µM (inactive) | 34 µM (inactive) | 2.49 µM (inactive)
Nc1nc(Cl)c2ncn(Cc3ccccc3CCl)c2n1 | 20.5 µM (inactive) | 8.18 µM (inactive) | 5.05 µM (inactive) | 15.9 µM (inactive) | 2.99 µM (inactive) | 3.72 µM (inactive) | 21.6 µM (inactive) | 3.85 µM (inactive) | 4.43 µM (inactive) | 5.97 µM (inactive) | 2.96 µM (inactive) | 4.52 µM (inactive) | 19.9 µM (inactive) | 18 µM (inactive) | 4.81 µM (inactive) | 18.5 µM (inactive) | 2.74 µM (inactive) | 3.34 µM (inactive) | 3.3 µM (inactive) | 2.21 µM (inactive)
CC(C)CC(NC(=O)OC(C)(C)C)C(=O)NC(CC(=O)OCc1ccccc1)C(=O)OCc1ccccc1 (stereo not drawn) (Boc-Leu-Asp(OBn)-OBn; configuration not given here) | > 100 µM (inactive) | 81.5 µM (inactive) | 43.2 µM (inactive) | > 100 µM (inactive) | 20.9 µM (inactive) | 26.1 µM (inactive) | > 100 µM (inactive) | 37.5 µM (inactive) | 33.5 µM (inactive) | 31.5 µM (inactive) | 39.4 µM (inactive) | > 100 µM (inactive) | > 100 µM (inactive) | 31 µM (inactive) | – | 63 µM (inactive) | 22.4 µM (inactive) | 25.8 µM (inactive) | 34.2 µM (inactive) | 21.9 µM (inactive)
COC(=O)c1cc2c3c(ccc2[nH]1)N(C(=O)c1cc2cc(OC)c(OC)c(OC)c2[nH]1)CC3CCl (stereo not drawn) | 42.5 µM (inactive) | 3.51 µM (inactive) | 2.66 µM (inactive) | > 100 µM (inactive) | > 100 µM (inactive) | 1.48 µM (inactive) | > 21.8 µM (inactive) | 8.55 µM (inactive) | – | 3.94 µM (inactive) | > 100 µM (inactive) | 12.2 µM (inactive) | > 100 µM (inactive) | > 34.8 µM (inactive) | > 24.1 µM (inactive) | > 100 µM (inactive) | – | 1.1 µM (active) | 5.48 µM (inactive) | 4.54 µM (inactive)
